Key:
[1] = target: T1, Peroxisome proliferator-activated receptor gamma (Homo sapiens, UniProt P37231); experiment: Transactivation of human full length PPARgamma expressed in COS1 cells co-transfected with RXRalpha after 24 hrs by luciferase reporter gene assay; format: cell-based, COS-1
T1 sequence (P37231 whole entry): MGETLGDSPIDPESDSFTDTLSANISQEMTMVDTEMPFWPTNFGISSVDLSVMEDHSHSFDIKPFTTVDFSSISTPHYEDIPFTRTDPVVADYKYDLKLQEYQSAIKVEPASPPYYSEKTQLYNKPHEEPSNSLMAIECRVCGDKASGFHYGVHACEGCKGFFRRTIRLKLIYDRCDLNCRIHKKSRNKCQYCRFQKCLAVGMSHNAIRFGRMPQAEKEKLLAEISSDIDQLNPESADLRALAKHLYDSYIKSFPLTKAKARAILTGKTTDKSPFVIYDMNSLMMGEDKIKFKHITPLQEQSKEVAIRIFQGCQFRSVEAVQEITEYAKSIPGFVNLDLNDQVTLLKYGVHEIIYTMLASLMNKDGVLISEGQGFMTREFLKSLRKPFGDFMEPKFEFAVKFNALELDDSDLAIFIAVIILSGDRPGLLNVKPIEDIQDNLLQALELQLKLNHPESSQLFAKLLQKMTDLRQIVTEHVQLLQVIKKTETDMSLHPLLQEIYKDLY

[2] = target: T2, Peroxisome proliferator-activated receptor gamma (Homo sapiens) (UniProt P37231); experiment: Transactivation of human full length PPARgamma expressed in COS1 cells co-transfected with RXRalpha after 24 hrs by luciferase reporter gene assay relative to farglitazar; format: cell-based; settings: COS-1
T2 sequence (whole entry): T1 sequence (P37231 whole entry)

[3] = target: T3, Peroxisome proliferator-activated receptor alpha (Homo sapiens) (UniProt Q07869); experiment: Transactivation of human full length PPARalpha expressed in COS1 cells co-transfected with RXRalpha after 24 hrs by luciferase reporter gene assay relative to WY14643; format: cell-based; settings: COS-1
T3 sequence (whole entry): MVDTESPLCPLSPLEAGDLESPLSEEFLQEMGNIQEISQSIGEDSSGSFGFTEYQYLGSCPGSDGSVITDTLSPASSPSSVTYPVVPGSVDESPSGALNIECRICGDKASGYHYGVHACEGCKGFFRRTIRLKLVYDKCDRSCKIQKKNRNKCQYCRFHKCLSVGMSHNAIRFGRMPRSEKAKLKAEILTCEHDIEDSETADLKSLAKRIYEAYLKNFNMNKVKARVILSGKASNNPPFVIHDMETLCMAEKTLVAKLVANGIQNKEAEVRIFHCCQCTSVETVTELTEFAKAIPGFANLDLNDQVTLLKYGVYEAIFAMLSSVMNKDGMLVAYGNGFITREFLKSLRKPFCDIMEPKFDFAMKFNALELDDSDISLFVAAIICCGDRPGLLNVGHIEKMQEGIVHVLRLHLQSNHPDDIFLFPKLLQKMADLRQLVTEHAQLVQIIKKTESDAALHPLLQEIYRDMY

[4] = target: T4, Tyrosine-protein phosphatase non-receptor type 1 (Homo sapiens, UniProt P18031); experiment: Inhibition of PTB1B using pNPP as substrate after 30 mins
T4 sequence (P18031 whole entry): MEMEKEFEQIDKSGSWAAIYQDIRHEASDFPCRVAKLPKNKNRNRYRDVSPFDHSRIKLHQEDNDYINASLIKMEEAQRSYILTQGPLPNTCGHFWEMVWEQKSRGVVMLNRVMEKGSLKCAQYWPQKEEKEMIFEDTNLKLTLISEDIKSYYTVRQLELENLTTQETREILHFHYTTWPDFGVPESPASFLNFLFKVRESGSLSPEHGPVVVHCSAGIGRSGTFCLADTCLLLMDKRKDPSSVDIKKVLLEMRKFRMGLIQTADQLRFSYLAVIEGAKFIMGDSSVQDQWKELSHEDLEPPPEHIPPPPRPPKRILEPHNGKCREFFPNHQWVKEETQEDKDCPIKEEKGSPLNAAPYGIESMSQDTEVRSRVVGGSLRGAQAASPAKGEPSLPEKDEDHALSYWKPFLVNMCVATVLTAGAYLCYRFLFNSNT

Mus musculus = experiment: Hypoglycemic activity in diabetic KK-Ay mouse model assessed as decrease in glucose level at 10 mg/kg, po qd for 4 days relative to untreated control; format: functional; parameters: scale not given: the % may be the effect or the level left
[5] = target: T5, Peroxisome proliferator-activated receptor alpha (Homo sapiens, UniProt Q07869); experiment: Transactivation of human full length PPARalpha expressed in COS1 cells co-transfected with RXRalpha after 24 hrs by luciferase reporter gene assay; format: cell-based, COS-1
T5 sequence (Q07869 whole entry): T3 sequence (whole entry)

[6] = target: T2, Peroxisome proliferator-activated receptor gamma (Homo sapiens); experiment: Ratio of rosiglitazone EC50 to compound EC50 for human full length PPARgamma

Row | Structure (SMILES) | EC50 [1] [µM] | Emax [2] [%] | Emax [3] [%] | IC50 [4] [µM] | EC50 [5] [µM] | Ratio EC50 [6] | Activity (Mus musculus) [%]
1 | CC(C)(C)N.CC(C)=C/C=C/C(=O)N1Cc2cc(OCCc3nc(/C=C/CCC(C)C)oc3C)ccc2C[C@H]1C(=O)O | 0.03 | 85 | 64 | 0.95 | 0.1 | – | 44
2 | C=CCCC(=O)N1Cc2cc(OCCc3nc(/C=C/CCC(C)C)oc3C)ccc2C[C@H]1C(=O)O.CC(C)(C)N | 0.04 | 105 | < 50 | 1.69 | – | – | 45
3 | C/C=C/C=C/C(=O)N1Cc2cc(OCCc3nc(/C(=C/C)CC)oc3C)ccc2C[C@H]1C(=O)O.CC(C)(C)N | 0.35 | 91 | < 50 | 5.6 | – | – | 47
4 | C/C=C/C=C/C(=O)N1Cc2cc(OCCc3nc(/C=C/CC(C)C)oc3C)ccc2C[C@H]1C(=O)O.CC(C)(C)N | 0.16 | 103 | 81 | 2 | 0.24 | – | 58
5 | C=CCCCC(=O)N1Cc2cc(OCCc3nc(/C=C/CCC(C)C)oc3C)ccc2C[C@H]1C(=O)O.CC(C)(C)N | 0.05 | 106 | < 50 | 1.43 | – | – | 22
6 | CC(C)(C)N.CCOCCC(=O)N1Cc2cc(OCCc3nc(/C=C/CCC(C)C)oc3C)ccc2C[C@H]1C(=O)O | 0.07 | 86 | < 50 | 3.35 | – | – | -13
7 | C/C=C/C=C/C(=O)N1Cc2cc(OCCc3nc(/C=C/C(C)CCC)oc3C)ccc2C[C@H]1C(=O)O.CC(C)(C)N (stereo partly drawn) | 0.31 | 82 | < 50 | 1.41 | – | – | 71
8 | C/C=C/C=C/C(=O)N1Cc2cc(OCCc3nc(/C=C/C(C)C)oc3C)ccc2C[C@H]1C(=O)O.CC(C)(C)N | 0.67 | 104 | 62 | 2.2 | 0.3 | – | 38
9 | C/C=C/C=C/C(=O)N1Cc2cc(OCCc3nc(/C(C)=C/CC)oc3C)ccc2C[C@H]1C(=O)O.CC(C)(C)N | 0.12 | 96 | < 50 | 4.4 | – | – | 40
10 | C/C=C/C=C/C(=O)N1Cc2cc(OCCc3nc(/C=C/C(C)(C)CC)oc3C)ccc2C[C@H]1C(=O)O.CC(C)(C)N | 0.76 | 77 | < 50 | 1.2 | – | – | 16
11 | CC(C)(C)N.CCOC/C=C/C(=O)N1Cc2cc(OCCc3nc(/C=C/CCC(C)C)oc3C)ccc2C[C@H]1C(=O)O | 0.09 | 108 | < 50 | 3.8 | – | – | 3
12 | C/C=C/C=C(\C)C(=O)N1Cc2cc(OCCc3nc(/C=C/CCC(C)C)oc3C)ccc2C[C@H]1C(=O)O.CC(C)(C)N | 0.05 | 98 | < 50 | 2.03 | – | – | 21
13 | CC(C)(C)N.CCO/C=C/C(=O)N1Cc2cc(OCCc3nc(/C=C/CCC(C)C)oc3C)ccc2C[C@H]1C(=O)O | 0.02 | 101 | < 50 | 2.55 | – | – | 33
14 | CC(C)(C)N.CCC(O)/C=C/C(=O)N1Cc2cc(OCCc3nc(/C=C/CCC(C)C)oc3C)ccc2C[C@H]1C(=O)O (stereo partly drawn) | 0.24 | 104 | < 50 | 6.2 | – | – | 19
15 | C/C=C/C=C/C(=O)N1Cc2cc(OCCc3nc(/C(C)=C/CCC(C)C)oc3C)ccc2C[C@H]1C(=O)O.CC(C)(C)N | 0.02 | 119 | < 50 | 1.02 | – | 4 | 56
16 | C/C=C/C=C/C(=O)N1Cc2cc(OCCc3nc(/C=C/CC(C)(C)C)oc3C)ccc2C[C@H]1C(=O)O.CC(C)(C)N | 0.16 | 92 | < 50 | 1.95 | – | – | 39

Now from value to compound, other results behind:

Row | EC50 [1] [µM] | Emax [2] [%] | Emax [3] [%] | IC50 [4] [µM] | EC50 [5] [µM] | Ratio EC50 [6] | Structure (SMILES) | Activity (Mus musculus) [%]
17 | 0.07 | 102 | < 50 | 0.57 | – | – | CC(C)(C)N.Cc1oc(/C=C/CCC(C)C)nc1CCOc1ccc2c(c1)CN(C(=O)/C=C/c1ccco1)[C@H](C(=O)O)C2 | 29
18 | 0.54 | 97 | < 50 | 2.25 | – | – | C/C=C/C=C/C(=O)N1Cc2cc(OCCc3nc(/C=C/C(C)(C)C)oc3C)ccc2C[C@H]1C(=O)O.CC(C)(C)N | 23
19 | 0.07 | 84 | < 50 | 1.05 | – | – | CC(C)(C)N.Cc1oc(/C=C/CCC(C)C)nc1CCOc1ccc2c(c1)CN(C(=O)/C=C/C1CC1)[C@H](C(=O)O)C2 | 27
20 | 0.76 | 90 | 66 | 1.3 | – | – | C/C=C/C=C/C(=O)N1Cc2cc(OCCc3nc(/C=C/C(CC)CC)oc3C)ccc2C[C@H]1C(=O)O.CC(C)(C)N | 18
21 | 0.03 | 96 | < 50 | 1.18 | – | – | CC(C)(C)N.CCC/C=C/C(=O)N1Cc2cc(OCCc3nc(/C=C/CCC(C)C)oc3C)ccc2C[C@H]1C(=O)O | 50
22 | 0.04 | 99 | < 50 | 1.05 | – | – | CC(C)(C)N.Cc1oc(/C=C/CCC(C)C)nc1CCOc1ccc2c(c1)CN(C(=O)/C=C/c1cccs1)[C@H](C(=O)O)C2 | 45
23 | – | 61 | < 50 | 3.2 | – | – | CC(C)(C)N.Cc1oc(/C=C/CCC(C)C)nc1CCOc1ccc2c(c1)CN(C(=O)/C=C/C=C/CO)[C@H](C(=O)O)C2 | 14
24 | 0.11 | 89 | < 50 | 1.15 | – | – | C/C=C/C=C/C(=O)N1Cc2cc(OCCc3nc(CCCCC(C)C)oc3C)ccc2C[C@H]1C(=O)O.CC(C)(C)N | 17
25 | 0.02 | 94 | < 50 | 0.94 | – | – | CC(C)(C)N.CCCCCC(=O)N1Cc2cc(OCCc3nc(/C=C/CCC(C)C)oc3C)ccc2C[C@H]1C(=O)O | 30

From ChEMBL document CHEMBL1933004, “Novel (S)-1,2,3,4-tetrahydroisoquinoline-3-carboxylic acids: peroxisome proliferator-activated receptor γ selective agonists with protein-tyrosine phosphatase 1B inhibition” (Bioorg Med Chem, 2012)
